Source: ChEMBL document CHEMBL3085700 (J Med Chem, 2013)
The source made the active and inactive calls. The calls are words filed in the database; no cut-off is given here.

Tests used:
[1] = target: T1, Lysophosphatidylserine lipase ABHD12 (Homo sapiens) (UniProt Q8N2K0); test: Inhibition of human ABHD12 overexpressed in HEK293 cells assessed as 2-AG hydrolysis at 1 uM by fluorescent glycerol assay; type: cell-based
T1 sequence (whole entry): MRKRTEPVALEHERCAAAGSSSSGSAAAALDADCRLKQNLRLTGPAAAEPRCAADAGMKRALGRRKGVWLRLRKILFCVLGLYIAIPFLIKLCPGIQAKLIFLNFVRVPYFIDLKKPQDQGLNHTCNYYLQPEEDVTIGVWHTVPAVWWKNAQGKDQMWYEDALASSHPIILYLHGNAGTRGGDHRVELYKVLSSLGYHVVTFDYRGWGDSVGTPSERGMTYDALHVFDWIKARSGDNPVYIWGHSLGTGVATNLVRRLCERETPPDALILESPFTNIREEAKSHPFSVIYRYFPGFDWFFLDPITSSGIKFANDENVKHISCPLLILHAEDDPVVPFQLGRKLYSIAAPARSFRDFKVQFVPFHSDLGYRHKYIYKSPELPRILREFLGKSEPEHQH

[2] = target: Cannabinoid receptor 2 (Homo sapiens) (UniProt P34972); test: Agonist activity at human CB2 receptor expressed in CHO cell membranes up to 10 uM incubated for 10 mins prior to testing by [35S]GTPgammaS binding assay; type: functional
[3] = target: T2, Fatty-acid amide hydrolase 1 (Homo sapiens) (UniProt O00519); test: Reversible inhibition of human recombinant FAAH overexpressed in African green monkey COS7 cells using […] as substrate assessed as recovery of enzyme activity at 20 x IC50 preincubated for 60 mins followed by 500 fold dilution measured after 10 mins by HPLC analysis; type: cell-based; conditions: COS-7
T2 sequence (whole entry): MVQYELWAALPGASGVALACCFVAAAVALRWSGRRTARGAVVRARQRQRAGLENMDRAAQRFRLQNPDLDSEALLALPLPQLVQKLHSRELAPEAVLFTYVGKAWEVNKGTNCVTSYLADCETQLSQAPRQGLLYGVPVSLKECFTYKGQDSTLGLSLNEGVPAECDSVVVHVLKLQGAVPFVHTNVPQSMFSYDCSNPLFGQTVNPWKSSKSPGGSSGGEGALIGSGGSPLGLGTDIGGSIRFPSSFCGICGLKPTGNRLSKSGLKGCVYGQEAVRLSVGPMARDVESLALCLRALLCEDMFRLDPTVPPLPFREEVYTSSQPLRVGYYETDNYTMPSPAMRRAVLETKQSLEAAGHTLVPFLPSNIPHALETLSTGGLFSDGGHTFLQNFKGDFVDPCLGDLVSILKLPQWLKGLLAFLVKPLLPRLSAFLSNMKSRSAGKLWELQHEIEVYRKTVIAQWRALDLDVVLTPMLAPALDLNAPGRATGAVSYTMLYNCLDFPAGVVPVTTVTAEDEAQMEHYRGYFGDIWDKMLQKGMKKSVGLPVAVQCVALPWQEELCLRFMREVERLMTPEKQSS

[4] = target: T3, Monoglyceride lipase (Mus musculus) (UniProt O35678); test: Inhibition of TAMRA-FP-labeled MAGL in mouse brain membrane at 10 uM after 1 hr by fluorescent gel scanning assay; type: cell membranes
T3 sequence (whole entry): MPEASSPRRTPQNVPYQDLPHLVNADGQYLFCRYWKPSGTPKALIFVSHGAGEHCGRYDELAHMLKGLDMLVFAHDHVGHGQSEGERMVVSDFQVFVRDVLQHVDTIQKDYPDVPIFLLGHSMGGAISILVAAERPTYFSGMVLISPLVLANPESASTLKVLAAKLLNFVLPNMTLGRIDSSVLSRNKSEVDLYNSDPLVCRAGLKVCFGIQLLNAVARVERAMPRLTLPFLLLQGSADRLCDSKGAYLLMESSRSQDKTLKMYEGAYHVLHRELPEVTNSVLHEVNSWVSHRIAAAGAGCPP

[5] = target: T4, Prostaglandin G/H synthase 2 (Homo sapiens) (UniProt P35354); test: Inhibition of human recombinant COX-2 assessed as inhibition of 2-AG cyclooxygenation at 100 uM measured within 10 to 50 secs relative to control
T4 sequence (whole entry): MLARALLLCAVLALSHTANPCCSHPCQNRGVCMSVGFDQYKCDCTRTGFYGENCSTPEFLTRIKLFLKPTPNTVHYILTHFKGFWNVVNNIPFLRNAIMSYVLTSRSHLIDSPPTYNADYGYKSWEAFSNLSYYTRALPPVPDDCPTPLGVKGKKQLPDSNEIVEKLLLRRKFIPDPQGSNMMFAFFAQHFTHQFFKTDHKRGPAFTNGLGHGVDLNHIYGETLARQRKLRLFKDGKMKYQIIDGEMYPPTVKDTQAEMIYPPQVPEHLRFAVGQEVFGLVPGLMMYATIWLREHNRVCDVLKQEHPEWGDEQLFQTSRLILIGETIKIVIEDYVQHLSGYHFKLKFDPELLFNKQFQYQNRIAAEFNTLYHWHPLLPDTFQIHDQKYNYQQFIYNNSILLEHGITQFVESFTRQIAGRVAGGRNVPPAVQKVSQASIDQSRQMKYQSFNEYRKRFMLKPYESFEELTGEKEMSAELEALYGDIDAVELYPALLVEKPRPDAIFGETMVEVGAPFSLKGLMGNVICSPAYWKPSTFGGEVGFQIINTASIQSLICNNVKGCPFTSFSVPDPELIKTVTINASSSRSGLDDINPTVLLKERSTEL

[6] = target: T5, Fatty-acid amide hydrolase 1 (Mus musculus) (UniProt O08914); test: Inhibition of TAMRA-FP-labeled FAAH in mouse brain membrane after 1 hr by fluorescent gel scanning assay; type: cell membranes
T5 sequence (whole entry): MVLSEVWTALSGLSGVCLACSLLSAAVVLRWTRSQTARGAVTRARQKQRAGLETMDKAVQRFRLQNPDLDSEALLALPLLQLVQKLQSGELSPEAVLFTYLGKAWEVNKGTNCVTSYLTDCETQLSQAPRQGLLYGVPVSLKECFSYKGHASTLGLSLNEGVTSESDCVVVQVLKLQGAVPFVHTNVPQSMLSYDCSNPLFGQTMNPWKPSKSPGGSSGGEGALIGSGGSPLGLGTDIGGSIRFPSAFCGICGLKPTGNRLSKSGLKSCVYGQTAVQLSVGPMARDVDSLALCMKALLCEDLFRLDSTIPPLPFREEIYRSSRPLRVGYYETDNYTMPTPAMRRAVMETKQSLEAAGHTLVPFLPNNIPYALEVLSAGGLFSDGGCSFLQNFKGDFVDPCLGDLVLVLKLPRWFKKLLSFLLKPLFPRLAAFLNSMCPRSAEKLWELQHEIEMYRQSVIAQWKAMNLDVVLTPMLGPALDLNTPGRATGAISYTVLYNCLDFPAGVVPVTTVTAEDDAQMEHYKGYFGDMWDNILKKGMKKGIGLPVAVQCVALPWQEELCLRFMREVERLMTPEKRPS

[7] = target: T2, Fatty-acid amide hydrolase 1 (Homo sapiens); test: Inhibition of human recombinant FAAH overexpressed in African green monkey COS7 cells using [3H]-anandamide as substrate at 3 to 30 uM preincubated for 10 to 60 mins by liquid scintillation counting analysis; type: cell-based; conditions: COS-7
[8] = target: T4, Prostaglandin G/H synthase 2 (Homo sapiens); test: Inhibition of human recombinant COX-2 assessed as inhibition of 2-AG cyclooxygenation at 30 uM measured within 10 to 50 secs relative to control

Cannabinoid receptor 2 (Homo sapiens), sequence (P34972 whole entry): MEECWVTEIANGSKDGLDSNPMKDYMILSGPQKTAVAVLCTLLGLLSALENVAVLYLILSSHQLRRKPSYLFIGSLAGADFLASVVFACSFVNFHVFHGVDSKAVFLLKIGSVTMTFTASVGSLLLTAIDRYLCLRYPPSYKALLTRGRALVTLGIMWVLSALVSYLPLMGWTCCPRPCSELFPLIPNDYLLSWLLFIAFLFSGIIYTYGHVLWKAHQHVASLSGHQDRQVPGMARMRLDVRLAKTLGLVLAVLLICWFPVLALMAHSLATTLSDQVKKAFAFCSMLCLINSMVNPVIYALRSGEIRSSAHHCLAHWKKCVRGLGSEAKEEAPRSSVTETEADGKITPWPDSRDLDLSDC

`COc1nn([C@@H](C)c2ccc(CC(C)C)cc2)c(=O)o1` was tested, and the inhibition [1] was “inactive”, the Activity [2] was “inactive” and the inhibition [3] was “Active”. The inhibition [4] was “inactive”, the inhibition [5] was 30% and the inhibition [6] was “Dose-dependent effect”. For the same compound, the inhibition [7] was “Active” and the inhibition [8] was 20%.
